Columns and labels:
[1] = system: non-specific interstitial pneumonitis (NSIP); assay: Inventor's own treatment course for non-specific interstitial pneumonitis, tracked by CRP level and symptoms; format: in vivo, human; details: tapered-down doses of prednisone from 30-40 mg/day
Description: NSIP is a sub-type of Idiopathic Pulmonary Fibrosis (IPF), comprising a group of interstitial pneumonias. […] Following the NSIP diagnosis, my tapered prednisone treatments were supplemented with 100 mg/day azathioprine and, subsequently, with 1800 mg/day N-Acetyl Cysteine (NAC).

[2] = system: idiopathic pulmonary fibrosis; details: as compared with placebo; Martinez F. J. et al., N Engl J Med 2014; cited from earlier work

Structure (SMILES): C[C@]12C=CC(=O)C=C1CC[C@@H]1[C@@H]2C(=O)C[C@@]2(C)[C@H]1CC[C@]2(O)C(=O)CO [prednisone]
- symptoms (dry cough, dyspnea, fever) [1]: continued symptoms to worsen
- systemic inflammation as measured by CRP level ([1]; eventually approaching and exceeding levels in the teens of mg/l): continued to worsen

Structure (SMILES): CC(=O)N[C@@H](CS)C(=O)O [acetylcysteine, N-Acetyl Cysteine]
- preservation of FVC [i.e., lung capacity] [2]: no significant benefit

Reference: patent US10052336B2, “Pulmonary interstitial pneumonia treatment” (priority 2012, dated 2018)
